≈ marks a conversion by molar mass, not a printed value. Where two headings read alike, the source gives them in different places.
How the values were obtained:
[1] = test system: Streptococcus faecalis 657; experiment: In vitro MIC, standard microtiter assay; assay type: cell-based; details: Enterococcus faecalis, 657; Table A; read-out: MIC
Description: (§1) In vitro minimum inhibitory concentrations (MIC) of the AAD-609 complex and of Factors A, B, CC2 and D, using standard microtiter assay procedures, against a number of microorganisms are reported in Table A, which follows.

S. epidermidis 2683 = experiment: In vitro MIC, standard microtiter assay; assay type: cell-based; details: Staphylococcus epidermidis, 2683; Table A; read-out: MIC
Description: as §1

Clostridium difficile = experiment: In vitro MIC, standard microtiter assay; assay type: cell-based; details: Clostridioides difficile; Table A; read-out: MIC
Description: as §1

[2] = test system: S. epidermidis 651 (methicillin resistant strain); experiment: In vitro MIC, standard microtiter assay; assay type: cell-based; details: methicillin resistant strain
Description: as §1

S. epidermidis 2479 = experiment: In vitro MIC, standard microtiter assay; assay type: cell-based
Description: as §1

[3] = test system: Salmonella gallinarum BC-595; experiment: In vitro MIC, standard microtiter assay; assay type: cell-based; details: Salmonella enterica, GALLINARUM; Table A; read-out: MIC
Description: as §1

S. epidermidis 2265 = experiment: In vitro MIC, standard microtiter assay; assay type: cell-based; details: Staphylococcus epidermidis, 2265; Table A; read-out: MIC
Description: as §1

Escherichia coli 12140 = experiment: In vitro MIC, standard microtiter assay; assay type: cell-based; details: Escherichia coli, 12140; Table A; read-out: MIC
Description: as §1

[4] = test system: Staphylococcus aureus HH127; experiment: In vitro MIC, standard microtiter assay; assay type: cell-based
Description: as §1

S. faecalis 34358 = experiment: In vitro MIC, standard microtiter assay; assay type: cell-based, Streptococcus faecalis
Description: as §1

S. aureus 209P = experiment: In vitro MIC, standard microtiter assay; assay type: cell-based, Staphylococcus aureus; details: Staphylococcus aureus, 209P; Table A; read-out: MIC
Description: as §1

S. aureus 675 = experiment: In vitro MIC, standard microtiter assay; assay type: cell-based, Staphylococcus aureus; details: Staphylococcus aureus, 675; Table A; read-out: MIC
Description: as §1

[5] = test system: S. aureus 910 (methicillin resistant strain); experiment: In vitro MIC, standard microtiter assay; assay type: cell-based, Staphylococcus aureus; details: Staphylococcus aureus; Table A; methicillin resistant strain; read-out: MIC
Description: as §1

S. aureus 674 = experiment: In vitro MIC, standard microtiter assay; assay type: cell-based, Staphylococcus aureus; details: Staphylococcus aureus, 674; Table A; read-out: MIC
Description: as §1

[6] = test system: S. aureus 2620 (methicillin resistant strain); experiment: MIC; assay type: cell-based; details: Staphylococcus aureus; Table B; methicillin resistant strain; read-out: MIC
Description: as §1

[7] = 30:70 acetonitrile:water
SK&F-AAD-609 = experiment: Susceptibility of SK&F-AAD-609 to antibiotics (diffusion method, BBL susceptibility disks); assay type: cell-based, Kibdelosporangium aridum subsp. largum; details: 28° C., one week
Protocol: Susceptibility of SK&F-AAD-609 to antibiotics was examined by placing BBL susceptibility disks on nutrient agar plates seeded with SK&F-ADD-609 as an agar overlay. Plates were placed at 4° C. for one hour to permit diffusion of the anitbiotics and, subsequently, incubated at 28° C. Diameters of the zones of inhibition were measured after incubation for one week.
Susceptibility to Antibiotics. […] Chlortetracycline (5 μg) produced 17-18 mm zones of inhibition; tetracycline (5 μg) 9-12 mm zones; rifampin (5 μg) 10-12 mm zones; novobiocin (5 μg) 30-35 mm zones. All zones of inhibition contained at least a few resistant colonies.

[8] = test system: Hubbard cross day-old chicks; experiment: Growth of chicks; assay type: in vivo; details: 8 reps
Protocol: The effects of virginiamycin, AAD-609 Complex (containing less than 5% AAD-216 antibiotics) and AAD-216 Complex on growth of chicks were evaluated as follows. Hubbard cross day-old chicks were housed in wire-floored poultry caging. Eight chicks were included in each pen/rep. Weights and feed intakes were recorded on days 10 and 17. Results showing animal weight as a percentage of a control fed a normal rye-based ration and animal feed intake per unit weight gain as a percentage of animal feed intake (g) per unit weight gain (g) of the controls are reported in the following table.

[9] = test system: mixed intestinal microflora (cecum fluid); experiment: Swine in vitro model; details: one level, up to 166.67 ppm; 4-5 h
Protocol: A swine in vitro model was used to characterize AAD-609 antibiotics as potential feed additives in swine and poultry. Mixed intestinal microflora were obtained from ileally-cannulated pigs. Virginiamycin, carbadox, AAD-216 and its components, and AAD-609 Complex (containing less than 5% AAD-216 antibiotics) were tested at one level. […] Glucose (GLU) was spared from microbial degradation. Volatile fatty acids (TOTAL) were the major end-product of microbial metabolism while lactic acid production were reduced. […] Since AAD-609 and AAD-216 give similar in vitro results, it is expected that AAD-609 has similar growth-promoting activity in monogastric animals. Also, the in vitro activity of AAD-609 is similar to the activity previously observed with bacitracin in this model.
The swine in vitro model was carried out by incubating 1.5 ml of cecum fluid, from a swine fed normal rations, mixed with 1.5 ml of a nutrient broth (3 mg casein hydrolysate, 30 mg maltose, 1.25 mg urea, 0.5 mg lysine, and 30 mg cellobiose) and with up to 166.67 parts per million of a selected growth promotant at 39° C., with oscillation, for about 4-5 hours. Results, percentage of control, are reported in the following table in which all abbreviations are as above except that LLA means L-lactate and ETOH means ethanol.

## CNC1C(=O)NC2C(=O)NC(C(=O)NC3C(=O)NC4C(=O)NC(C(=O)NC(C(=O)O)c5cc(O)cc(OC6OC(CO)C(O)C(O)C6O)c5-c5cc4ccc5O)C(O)c4cc(Cl)c(c(Cl)c4)Oc4cc3cc(c4OC3OC(CO)C(O)C(O)C3NC(=O)CCCCCCCC(C)C)Oc3ccc(cc3Cl)C2O)c2cc(cc(O)c2Cl)Oc2cc1ccc2O (stereo not drawn) [AAD-609 B]
[1]
  MIC: 0.2 µg/mL (≈ 0.112 µM)
S. epidermidis 2683
  MIC: 25 µg/mL (≈ 14 µM)
Clostridium difficile
  MIC: 0.5 µg/mL (≈ 0.279 µM)
[2]; Staphylococcus epidermidis, Table A, read-out: MIC
  MIC: 50 µg/mL (≈ 27.9 µM)
[2]; Table B
  MIC: 50 µg/mL (≈ 27.9 µM)
S. epidermidis 2479; Staphylococcus epidermidis, 2479, Table A, read-out: MIC
  MIC: 12.5 µg/mL (≈ 6.99 µM)
S. epidermidis 2479; Table B
  MIC: 12.5 µg/mL (≈ 6.99 µM)
[3]
  MIC: > 100 µg/mL
S. epidermidis 2265
  MIC: 25 µg/mL (≈ 14 µM)
Escherichia coli 12140
  MIC: > 100 µg/mL
[4]; Staphylococcus aureus, HH127, Table A, read-out: MIC
  MIC: 1.6 µg/mL (≈ 0.894 µM)
[4]; Table B
  MIC: 1.6 µg/mL (≈ 0.894 µM)
S. faecalis 34358; Enterococcus faecalis, 34358, Table A, read-out: MIC
  MIC: 0.2 µg/mL (≈ 0.112 µM)
S. faecalis 34358; Table B
  MIC: 0.2 µg/mL (≈ 0.112 µM)
S. aureus 209P
  MIC: 0.8 µg/mL (≈ 0.447 µM)
S. aureus 675
  MIC: 6.3 µg/mL (≈ 3.52 µM)
[5]
  MIC: 1.6 µg/mL (≈ 0.894 µM)
S. aureus 674
  MIC: 0.8 µg/mL (≈ 0.447 µM)
[6]
  MIC: 2 µg/mL (≈ 1.12 µM)
[7]
  pKa (A) carboxyl on aglycone: 3.5
  pKa (C) amino group on aglycone: 7.1

## CN(C)[C@@H]1C(O)=C(C(N)=O)C(=O)[C@@]2(O)C(O)=C3C(=O)c4c(O)ccc(Cl)c4[C@@](C)(O)[C@H]3C[C@@H]12 [Chlortetracycline]
SK&F-AAD-609; disk 5 μg
  Zone of inhibition (diameter): 17-18 mm

## CC1(C)S[C@@H]2[C@H](NC(=O)[C@H](N)c3ccccc3)C(=O)N2[C@H]1C(=O)O [ampicillin]
SK&F-AAD-609; disk 10 μg
  Susceptibility (diffusion method): resistant

## CC(=O)OCC1=C(C(=O)O)N2C(=O)[C@@H](NC(=O)Cc3cccs3)[C@H]2SC1 [cephalothin]
SK&F-AAD-609; disk 30 μg
  Susceptibility (diffusion method): resistant

## O=C(N[C@H](CO)[C@H](O)c1ccc([N+](=O)[O-])cc1)C(Cl)Cl [chloramphenicol]
SK&F-AAD-609; disk 5 μg
  Susceptibility (diffusion method): resistant

## CCC[C@@H]1C[C@@H](C(=O)N[C@@H]([C@H]2O[C@H](SC)[C@H](O)[C@@H](O)[C@H]2O)[C@@H](C)O)N(C)C1 [lincomycin]
SK&F-AAD-609; disk 2 μg
  Susceptibility (diffusion method): resistant

## CO[C@@H]1[C@@H](OC(N)=O)[C@@H](O)[C@H](Oc2ccc3c(O)c(NC(=O)c4ccc(O)c(CC=C(C)C)c4)c(=O)oc3c2C)OC1(C)C [novobiocin]
SK&F-AAD-609; disk 5 μg
  Zone of inhibition (diameter): 30-35 mm

## CC1(C)S[C@@H]2[C@H](NC(=O)Cc3ccccc3)C(=O)N2[C@H]1C(=O)O [penicillin]
SK&F-AAD-609; disk 10 units
  Susceptibility (diffusion method): resistant

## CO[C@H]1/C=C/O[C@@]2(C)Oc3c(C)c(O)c4c(O)c(c(/C=N/N5CCN(C)CC5)c(O)c4c3C2=O)NC(=O)/C(C)=C\C=C\[C@H](C)[C@H](O)[C@@H](C)[C@@H](O)[C@@H](C)[C@H](OC(C)=O)[C@@H]1C [rifampin]
SK&F-AAD-609; disk 5 μg
  Zone of inhibition (diameter): 10-12 mm

## [H]/N=C(/N)N[C@H]1[C@H](O)[C@@H](O)[C@H](O[C@@H]2O[C@@H](C)[C@](O)(C=O)[C@H]2O[C@@H]2O[C@@H](CO)[C@H](O)[C@@H](O)[C@@H]2NC)[C@@H](N/C(N)=N\[H])[C@@H]1O [streptomycin]
SK&F-AAD-609; disk 10 μg
  Susceptibility (diffusion method): resistant

## CN(C)[C@@H]1C(=O)C(C(N)=O)=C(O)[C@@]2(O)C(=O)C3=C(O)c4c(O)cccc4[C@@](C)(O)[C@H]3C[C@@H]12 [tetracycline]
SK&F-AAD-609; disk 5 μg
  Zone of inhibition (diameter): 9-12 mm

## NC[C@H]1O[C@H](O[C@H]2[C@H](O)[C@@H](O[C@H]3O[C@H](CO)[C@@H](O)[C@H](N)[C@H]3O)[C@H](N)C[C@@H]2N)[C@H](N)C[C@@H]1O [tobramycin]
SK&F-AAD-609; disk 10 μg
  Susceptibility (diffusion method): resistant

## gentamicin
SK&F-AAD-609; disk 10 μg
  Susceptibility (diffusion method): resistant

## virginiamycin
[8]; 10.0 ppm in feed
  Feed/gain, days 3-10: 99.8 % of control
  Feed/gain, days 3-17: 97.5 % of control
  Feed/gain, days 10-17: 96.6 % of control
  Mortality: 4
  Weight, day 10: 100.3 % of control
  Weight, day 17: 101.8 % of control
[8]; 50.0 ppm in feed
  Feed/gain, days 3-10: 92.8 % of control
  Feed/gain, days 3-17: 83.2 % of control
  Feed/gain, days 10-17: 74.3 % of control
  Mortality: 2
  Weight, day 10: 101.5 % of control
  Weight, day 17: 120.2 % of control
[9]
  % PR (percent propionate): 69 % of control
  ACE (acetate): 53 % of control
  BUT (butyrate): 153 % of control
  ETOH (ethanol): 25 % of control
  GLU (glucose): 180 % of control
  IBU (isobutyrate): 0 % of control
  IVA (isovalerate): 0 % of control
  LLA (L-lactate): 4 % of control
  LYS (lysine): 94 % of control
  PRO (propionate): 44 % of control
  TOTAL (total volatile fatty acids): 63 % of control
  VAL: 0 % of control
